How the values were obtained:
Assay type in all cases: cell-based, human
[1] = test system: control fibroblast cell line FB826; test: Mitochondrial ROS production using MitoSOX Red; settings: FIG. 15A; 180 and 640 μM, 72 h
Description: (§1) FIGS. 15A-15D are graphs showing the measurement of mitochondrial reactive oxygen species (ROS) production using MitoSOX Red as Superoxide indicator probe. FIG. 15A is a graph showing control fibroblast cell line FB826 treated with PMA010, PMA011, PMA019, and PMA020. FIG. 15B is a graph showing propionic acidemia (PA) patients' fibroblast cell linc Fb859 treated with PMA010, PMA011, PMA019, and PMA020. FIG. 15C is a graph showing propionic acidemia (PA) patients' fibroblast cells line Fb900 treated with PMA010, PMA011, PMA019, and PMA020. FIG. 15D is a graph comparing ROS production levels in response to treatment with PMA011 in Control fibroblast cell line (FB826), PA fibroblast cell line (Fb900), and glutaric acidemia II (GA II) patient fibroblast cell lines (Fb930, Fb961). Data are the average of readings from 3 replicate wells.
(§2) Measurement of mitochondrial ROS production using MitoSOX Red as superoxide indicator probe: control (Fb826), PA patient (Fb859, Fb900) and GA II patient (Fb930, Fb961) fibroblasts were grown in regular DMEM media containing glucose/pyruvate/L-glutamine until 85-90% confluency. The cells were harvested and seeded at a concentration of 25,000 cells/80 μl (n=3) in cell culture treated black wall 96 well microplate with clear bottom in regular DMEM media containing glucose/pyruvate/L-glutamine and incubated overnight at 37° C. in a 5% CO2 incubator. Following day, the culture media was replaced in designated wells with the following for 72 h: 150 μl regular DMEM (Glucose+10% FBS+sodium pyruvate+L-glutamine+0.5 mM carnitine). 150 μl of Regular DMEM containing experimental compounds (180 and 640 μM) PMA010 or PMA011 or PMA 019 and (640 μM) PMA020 in control and propionic acidemia patient fibroblasts. 150 μl of regular DMEM containing experimental compounds (600 and 1200 μM) PMA011 in Fb930 and (1200 μM) PMA011 in Fb961 GA II patient fibroblast. After 72 h incubation the wells were washed twice with 150 μL of Seahorse XFDMEM base media and in respective designated wells the following Assay buffer (150 μL of seahorse XFDMEM base media containing glucose, sodium pyruvate and Glutamine) was used along with 5 μM MitoSOX reagent and incubated at 37° C. non-CO2 incubator for 15 minutes protected from light. After 15 minutes incubation the cells were washed twice with 150 μL of seahorse XFDMEM base media and replaced with measurement buffer, which is same as the wash buffer. The fluorescence was monitored with excitation at 520 nm and emission at 580 nm. Finally, cells were lysed, and protein content was determined. Data is normalized to protein concentration and fluorescence is reported as MitoSOX Red (AFU)/mg protein.

[2] = test system: propionic acidemia (PA) fibroblast cell line Fb900; test: Mitochondrial ROS production using MitoSOX Red; settings: FIG. 15C; 180 and 640 μM, 72 h
Description: as §1, §2

HEK293 PCCA−/− cells [3] = test: Propionyl-CoA alternative metabolites excreted in culture media (mass spectrometry); settings: 72 hours; relative to untreated cells
Protocol: FIGS. 14A-14D are graphs showing the quantitation of propionyl-CoA alternative metabolites excreted in the media of FB859 patient and HEK293 PCCA^−/− cultured cells treated with PMA007 or PMA010 for 72 hours: propionylcarnitine (C3-carnitine; FIG. 14A), propionylglycine (C3-glycine; FIG. 14B), hydroxypropionylcarnitine (C3OH-carnitine; FIG. 14C), and hydroxypropionyl glycine (C3OH-glycine, FIG. 14D). Data are presented as percentage to untreated cells. In media of Fb859 cells, the control (Cntl, 0 μM) treatment with glucose and pyruvate, media propionylcarnitine was 0.17 μM, while in the untreated control, which had no glucose or pyruvate, and stripped FBS (no fat) included in the media, propionylcarnitine was 0.433 μM.
Acylcarnitine levels determination: Media from control, Fb826, and treated and untreated patient, Fb859, cells were collected from either the immunohistochemistry cultures or the Seahorse oxygen consumption 96-well plate assays and analyzed for the levels of short chain acylcarnitines plus propionylglycine and hydroxypropionylglycine using a triple quadrupole API4000 mass spectrometer (AB Sciex™, Framingham, MA) equipped with a ExionLC™ 100 HPLC system (Shimadzu Scientific Instruments™, Columbia, MD) as outlined as previously published.

HEK293 PCCA−/− cells [4] = test: Lysine succinylation of cellular proteins by immunofluorescence confocal microscopy; settings: FIGS. 9C, 9D; 30 μM and 90 μM; media without glucose, pyruvate, and glutamine
Protocol: FIGS. 9A-9F are a comparison of lysine succinylation of cellular proteins visualized by immunofluorescence confocal microscopy in human HEK293 control and HEK293 PCCA^−/− cells untreated (FIGS. 9A and 9B) and treated with 30 μM and 90 μM of PMA007 (FIG. 9C) or 30 μM and 90 μM of PMA010 (FIG. 9D). The cells in FIGS. 9B, 9C, and 9D were grown in media without glucose, pyruvate, and glutamine. Scale bar=20 μm. FIG. 9E is a bar graph showing the quantification of the percent change in lysine succinylation (green) signal, from the immunofluorescence confocal micrographs of FIGS. 9B and 9C, in response to the treatment of PMA007. FIG. 9F is a bar graph showing the quantification of the percent change in lysine succinylation (green) signal, from the immunofluorescence confocal micrographs of FIGS. 9B and 9D, in response to the treatment of PMA010. Asterisks indicate statistical significance calculated at the raw data level (n=3); **P<0.01. ****P<0.0001 statistically compared to untreated. Statistical analysis used T-test.
FIGS. 9A-9F are a comparison of lysine succinylation of cellular proteins visualized by immunofluorescence confocal microscopy in human HEK293 control and in untreated and treated HEK293 PCCA^−/− knock out cells. […] The PMA007 treatment data in the bar graph of FIG. 9E are the quantitation of the images of FIG. 9C compared to untreated control in FIG. 9B. […]

SMILES: C[C@@H](NC(=O)CCCCC(=O)O)C(=O)N[C@H](Cc1c[nH]cn1)C(=O)O [PMA010, 6-(((R)-1-(((R)-1-carboxy-2-(1H-imidazol-4-yl)ethyl)amino)-1-oxopropan-2-yl)amino)-6-oxohexanoic acid]
- ROS detected (MitoSOX Red) [1]: significant decrease in ROS
- ROS detected (MitoSOX Red) [2]: significant decrease in ROS
- reduction in hydroxypropionyl glycine in media (HEK293 PCCA−/− cells [3]): 80%
- reduction in propionylcarnitine in media (HEK293 PCCA−/− cells [3]): 59%
- reduction in propionylglycine in media (HEK293 PCCA−/− cells [3]): 41%
- lysine succinylation (green) signal (HEK293 PCCA−/− cells [4]): green color was restored
